Measured values taken from US11541093B2, “Pharmacological use of Cimicifuga extract” (Max Zeller Soehne AG, priority 2012, dated 2023).

Columns and labels:
diabetic rats = settings: intravenously at 5 and 10 mg/kg; cited from earlier work
male ob/ob mice [1] = assay: Body weight in male ob/ob mice; assay type: in vivo
Text: (§1) The effects of oral 7-day administration of a Cimicifuga racemosa extract prepared according to example 1 and designated Ze 450 on body weight, daily food and water intake as well as glucose control were investigated in male ob/ob mice as follows. The ob/ob mouse is a well-characterized and representative in-vivo model of obesity and diabetes in mammals, in particular humans, wherein both disorders are the result of a mutation in the ob gene which encodes leptin. In the study metformin was the positive control.
(§2) Body weight, food and water intake were measured daily from 6 days before dosing to 6 days after dosing started. Animals were fasted overnight on Day 6 for an oral glucose tolerance test (OGTT) on Day 7. The animals also had freely fed bleeds on Day −4 and Day 6. […]
(§3) All treatments were dosed orally by gavage […] once daily. During the treatment period food intake, water intake and body weight were recorded daily at the dosing session. After dosing the animals were examined and any overt behavior was recorded. […]
(§4) Body weights, food intake and water intake were expressed as mean values ±SEM. Body weight, body weight gain, daily and average food and water intake data and cumulative food intake were analyzed by ANCOVA with baseline as a covariate, followed by appropriate comparisons (two-tailed) to determine significant differences from the appropriate control group. […]

male ob/ob mice [2] = assay: Daily water intake in male ob/ob mice; assay type: in vivo; settings: metformin PO; p=0.002
Text: as §1, §2, §3, §4

SMILES	plasma glucose levels (diabetic rats)	effect on overall body weight (male ob/ob mice [1]; metformin 200 mg/kg PO, after 6 days of treatment)	cumulative body weight over the 6 treatment days (male ob/ob mice [1]; metformin PO, compared to its control group)	average weekly water intake (male ob/ob mice [2])
COc1ccc(/C=C/C(=O)O)cc1O [isoferulic acid]	will lower plasma glucose levels			
CN(C)C(=N)N=C(N)N [metformin]		no significant effect	virtually no reduction	significant (p=0.002) reduction
